Type in all cases: physicochemical
The nature of data set [1]: Solubility of the disodium salt in water. The note with it: 25° C. Here is the method: N-4-(1H-tetrazol-5-yl)phenyl-4-(1H-tetrazol-5-yl)benzamide is prepared as described in WO 90/09989, Example 13 (herein incorporated by reference). The disodium salt of N-4-(1H-tetrazol-5-yl)phenyl-4-(1H-tetrazol-5-yl)benzamide can be prepared directly as the pentahydrate or precipitated as an undefined mixture of hydrates and then converted into the pentahydrate (Form A), by re-crystallization or by phase equilibration (slurry conversion: slurry in an appropriate solvent mixture). In both cases the disodium salt is obtained by adding to a suspension in water of N-4-(1H-tetrazol-5-yl)phenyl-4-(1H-tetrazol-5-yl)benzamide, an amount of aqueous sodium hydroxide or sodium alkoxide, ranging from 2.0 to 2.2 equivalents, preferably 2.1 equivalents, being sodium methoxide, sodium ethoxide and sodium isopropoxide the preferred alkoxide, at a temperature ranging from +15° to +40° C. […] The resulting mixture is stirred until the solid is completely dissolved, then the pH of the solution is carefully adjusted to 6.5-7.5, by addition of diluted hydrochloric acid, filtered and concentrated under vacuum, at a temperature not exceeding +60° C. […]

Data set [2] in a line: Moisture sorption/desorption by Differential Vapor Sorption (DVS). The note with it: for R.H. at which substantial desorption (loss of water) starts: DVS scanning mode, 5% ΔR.H. per hour. Here is the method: The moisture sorption/desorption behavior was analyzed for different solids using Differential Vapor Sorption (DVS) technique. In FIG. 8 is reported as an example the sorption/desorption isotherms for batch B/6272. […] Though the different batches were not characterized by exactly matching DVS diagrams all reached the about 20% water content after an appropriate time.
This surprising stability to moisture of Form A is also confirmed by DVS experiments. In the scanning mode, water is only lost when about 0% R.H. is reached. Moisture sorption/desorption behavior for the pentahydrate is reported in Example 9 (FIG. 14).
Water vapor sorption/desorption was analyzed using Surface Measurement System Ltd. DVS-1 apparatus. The sample was allowed to equilibrate at 50% R.H. before starting a predefinite humidity program, scanning with 5% ΔR.H. hour^−1 and with several “isohumid” equilibration periods (see FIG. 14 for details). The water content of the sample used for DVS was calculated on the basis of KF analysis, while crystalline form was assessed by FT-Raman spectroscopy. The DVS plots of water content vs. R.H. and R.H. vs. time are reported for Andolast disodium pentahydrate (Form A) in FIG. 14. It can be seen from the DVS plot that substantial desorption starts only at almost 0% RH.

Data set [3] can be described thus: Aerosol performance of dry powder formulation for inhalation by MSLI (Multi Step Liquid Impinger). The note with it: dose 8 mg. An excerpt:
As discussed below Andolast disodium salt as Form A can be formulated according to several pharmaceutical compositions.

Data set [4] in a line: Storage of open samples in humidity controlled chamber (stability to moisture, Example 8). Conditions: 9 days; for FT-Raman / KF (water content) / XRPD: open sample. From the text: The list of improved physical and mechanical characteristics reported below is intended at documenting representative examples of advantages Form A is endowed with over the undefined hydrated forms obtained according to uncontrolled conditions.
samples of Form A were stored, as open samples, in an humidity controlled chamber for 9 days, in Table 5 water content (KF), XRPD and FT-Raman spectra at the end-point of the experiment are reported vs. R.H. […]

The nature of data set [5]: Stability to temperature and mechanical mill (Example 10). The note with it: open sample 1 day at 50° C., then milled 10 min at 24 s−1 in ball swing mill. Here is the method:
about 1 g of Andolast disodium salt Form A was stored, as open sample, for 1 day at 50° C. The product was then milled for 10 min. at 24 s−1 in a ball swing mill. A sample was then analyzed by KF and FT-Raman spectroscopy.

Data set [6] in a line: Stability of crystalline form to jet mill micronization (Example 11). Conditions: MC Jet Mill, nitrogen, 12 bar, about 10 g/30 sec, without cooling. From the text:
In Example 11 it is reported how Form A can be successfully micronized using conditions identical to the ones used for the micronization of the batch B/7081 (see FIGS. 7a and 7b for XRPD spectra) without altering XRPD and spectroscopic characteristics (Ft-Raman and FT-IR), thus proving Form A stability and crystalline form consistency also after the micronization step affording the suitable drug substance for preparing dry powder and pressurized HFA aerosols formulations for inhalation.
Andolast disodium form A is micronized, without cooling, using an MC Jet Mill apparatus, and nitrogen as carrier gas, at 12 bar and with a feeding rate of about 10 g/30 sec.

A short description of data set [7]: ICH accelerated stability testing.
[8] abbreviates: active ingredient/excipient 1:1, Mean of 6 MSLI runs.
Setting [9] is: active ingredient/excipient 1:1, capsule inhaler, single MSLI runs 1-6.
Where [10] appears, read: active ingredient/excipient 1:1, Mean of 6 MSLI runs, listed as Form A obtained at Example 3.
Setting [11] is: active ingredient/excipient 1:1, capsule inhaler, single MSLI runs 1-6, listed as Form A obtained at Example 3.

Values joined by “and” are separate entries in the source; they are usually repeats but may differ in a detail not shown here. Identical values can stand only once. Like-named read-outs stand apart in the source and are kept apart here.

As a reminder, the solubility is the concentration that dissolves in the medium under given conditions. On to `O=C(Nc1ccc(-c2nn[n-]n2)cc1)c1ccc(-c2nn[n-]n2)cc1.[Na+].[Na+]` [Andolast disodium salt, N-4-(1H-tetrazol-5-yl)phenyl-4-(1H-tetrazol-5-yl)benzamide disodium salt], for which the solubility in data set [1] was approximately 150 mg/mL.

For the molecule `O=C(Nc1ccc(-c2nn[n-]n2)cc1)c1ccc(-c2nn[n-]n2)cc1.[Na+].[Na+]` [B/6272, reference compound], the “hygroscopic character of the solid” value in data set [2] is “strongly hygroscopic”. In addition, the “water content at plateau of moisture sorption” value in data set [2] (DVS, continuous sorption of moisture) is reported as “about 20%”.

For `O=C(Nc1ccc(-c2nn[n-]n2)cc1)c1ccc(-c2nn[n-]n2)cc1.[Na+].[Na+]` [B/7080, reference compound], in data set [3] (setting [8]), the “DD (Delivered Dose)” value is listed as 6.63 mg, the “FPD (Fine Particle Dose)” value is 1.12 mg, the “FPF (Fine Particle Fraction)” value is 17% and the “MD (Metered Dose)” value came out at 7.55 mg. Further, the MMAD in data set [3] (setting [8]) is on record as 5.2 μm. Further, in data set [3] (setting [9]), the “DD (Delivered Dose)” value was 6.66 mg and 5.96 mg and 6.77 mg and 7.01 mg and 6.57 mg and 6.81 mg; the “FPD (Fine Particle Dose)” value is 0.96 mg and 0.99 mg and 1.21 mg and 1.01 mg and 1.23 mg and 1.30 mg; the “MD (Metered Dose)” value is 7.60 mg and 7.29 mg and 7.61 mg and 7.85 mg and 7.65 mg; the MMAD was 5.3 μm and 5.2 μm and 5.1 μm and 5.4 μm.

Regarding `O=C(Nc1ccc(-c2nn[n-]n2)cc1)c1ccc(-c2nn[n-]n2)cc1.[Na+].[Na+]` [Example 3], in data set [3] (setting [10]), the “DD (Delivered Dose)” value is listed as 7.46 mg, the “FPD (Fine Particle Dose)” value was determined as 2.16 mg, the “FPF (Fine Particle Fraction)” value was found to be 29% and the “MD (Metered Dose)” value came to 8.48 mg. Also, the MMAD in data set [3] (setting [10]) worked out at 3.8 μm. Besides, in data set [3] (setting [11]), the “DD (Delivered Dose)” value is 7.25 mg and 7.54 mg and 7.47 mg and 7.33 mg and 7.71 mg and 7.43 mg; the “FPD (Fine Particle Dose)” value is 1.96 mg and 2.07 mg and 2.58 mg and 1.97 mg and 2.18 mg and 2.20 mg; the “FPF (Fine Particle Fraction)” value is 27% and 35% and 28% and 30%; the “MD (Metered Dose)” value was 8.31 mg and 8.67 mg and 8.46 mg and 8.33 mg and 8.49 mg and 8.60 mg. Further, the MMAD in data set [3] (setting [11]) is 3.8 μm and 4.0 μm and 3.6 μm and 3.9 μm.

Turning to `O=C(Nc1ccc(-c2nn[n-]n2)cc1)c1ccc(-c2nn[n-]n2)cc1.[Na+].[Na+]` [Form A, N-4-(1H-tetrazol-5-yl)phenyl-4-(1H-tetra-zol-5yl)benzamide disodium salt], the “Stability to moisture (water content and solid form)” value in data set [4] (R.H. from 12% to 85%, room temperature) was “did not alter the water content of any sample, neither the solid form”. In addition, the FT-Raman result in data set [4] (RH 12%), in data set [4] (RH 22%), in data set [4] (RH 32%), in data set [4] (RH 53%), in data set [4] (RH 65%) and in data set [4] (RH 75%) was “Complies with Form A” throughout. In data set [4] (RH 85%), the FT-Raman result was “Complies with Form A”. Further, the “KF (water content)” value in data set [4] (RH 12%) was 19.26%; in data set [4] (RH 22%), 19.36%; in data set [4] (RH 32%), 19.34%; in data set [4] (RH 53%), 19.35%; in data set [4] (RH 65%) it was 19.25%; in data set [4] (RH 75%), 19.22%. The “KF (water content)” value in data set [4] (RH 85%) is given as 19.43%; in data set [5] it was 19.53%. Besides, the XRPD result in data set [4] (RH 12%), in data set [4] (RH 22%), in data set [4] (RH 32%), in data set [4] (RH 53%), in data set [4] (RH 65%) and in data set [4] (RH 75%) was “Complies with Form A” throughout. The XRPD result in data set [4] (RH 85%) was “Complies with Form A”. Besides, the “R.H. at which substantial desorption (loss of water) starts” value is “about 0 % RH” in data set [2] (disodium salt) and approximately 0 % RH in data set [2] (listed as Andolast disodium pentahydrate (Form A), disodium salt). Also, in data set [2] (listed as Andolast disodium Form A, disodium salt), the “hygroscopic character of the solid” value was “not hygroscopic”. In data set [5], the “crystalline change by Raman spectra” value is recorded as “no crystalline change occurred”. The “changes in XRPD, FT-IR and FT-Raman versus not-micronized starting material” value in data set [6] is “no changes were observed”. The “stability (physical form and chemical stability)” value in data set [7] was “confirmed its stability”.

(Values after patent publication US7824710B2, “Crystalline and stable form of andolast” (Rottapharm S.p.A., priority 2006, dated 2010).)
